The values below come from patent publication US20260265233A1, “BENZOTHIOPHENE DERIVATIVES AS RXFP1 AGONISTS” (BRISTOL-MYERS SQUIBB COMPANY, priority 2021, published 2026).

Broadly, the pEC50 is the EC50 on a negative log10 scale, so that one unit is a factor of ten.

pEC50: −log10 of the molar value.

The target of the experiment is T1, human RXFP1 (Homo sapiens, UniProt Q9HBX9).
T1 construct: expressed in transfected cells
T1 sequence (Q9HBX9 1-757): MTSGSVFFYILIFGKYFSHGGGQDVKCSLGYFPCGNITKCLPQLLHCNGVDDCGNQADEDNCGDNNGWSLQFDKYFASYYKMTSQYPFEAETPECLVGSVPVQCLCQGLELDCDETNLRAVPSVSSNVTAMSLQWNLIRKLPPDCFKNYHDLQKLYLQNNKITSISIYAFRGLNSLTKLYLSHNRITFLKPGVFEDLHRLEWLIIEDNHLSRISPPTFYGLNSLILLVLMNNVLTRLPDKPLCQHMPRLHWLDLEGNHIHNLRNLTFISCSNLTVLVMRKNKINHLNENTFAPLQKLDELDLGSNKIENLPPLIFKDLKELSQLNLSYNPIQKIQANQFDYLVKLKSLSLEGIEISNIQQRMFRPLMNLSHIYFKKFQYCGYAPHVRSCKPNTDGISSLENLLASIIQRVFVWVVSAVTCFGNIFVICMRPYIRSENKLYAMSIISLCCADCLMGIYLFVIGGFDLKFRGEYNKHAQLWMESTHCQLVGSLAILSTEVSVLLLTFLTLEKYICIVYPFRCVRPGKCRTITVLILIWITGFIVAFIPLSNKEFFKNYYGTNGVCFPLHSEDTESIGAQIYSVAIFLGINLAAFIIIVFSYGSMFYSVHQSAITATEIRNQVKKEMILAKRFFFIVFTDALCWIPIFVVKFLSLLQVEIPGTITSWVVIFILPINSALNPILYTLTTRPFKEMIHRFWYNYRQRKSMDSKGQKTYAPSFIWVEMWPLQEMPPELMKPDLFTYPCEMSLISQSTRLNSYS
Put plainly: hRXFP1 HEK293 cAMP assay (HTRF). It counts as cell-based. The following applies: HEK293 cells stably expressing human RXFP1; 30 min at rt; intracellular cAMP by HTRF. Here is the method: RXFP1 Cyclic Adenosine Monophosphate (cAMP) Assays. Human embryonic kidney cells 293 (HEK293) cells and HEK293 cells stably expressing human RXFP1, were cultured in MEM medium supplemented with 10% qualified FBS, and 300 μg/ml hygromycin (Life Technologies). Cells were dissociated and suspended in assay buffer. The assay buffer was HBSS buffer (with calcium and magnesium) containing 20 mM HEPES, 0.05% BSA, and 0.5 mM IBMX. Cells (3000 cells per well, except 1500 cell per well for HEK293 cells stably expressing human RXFP1) were added to 384-well Proxiplates (Perkin-Elmer). Cells were immediately treated with test compounds in DMSO (2% final) at final concentrations in the range of 0.010 nM to 50 μM. Cells were incubated for 30 min at rt. The level of intracellular cAMP was determined using the HTRF HiRange cAMP assay reagent kit (Cisbio) according to manufacturer's instructions. Solutions of cryptate conjugated anti-cAMP and d2 fluorophore-labelled cAMP were made in a supplied lysis buffer separately. Upon completion of the reaction, the cells were lysed with equal volume of the d2-cAMP solution and anti-cAMP solution. After a 1 h rt incubation, time-resolved fluorescence intensity was measured using the Envision (Perkin-Elmer) at 400 nm excitation and dual emission at 590 nm and 665 nm. A calibration curve was constructed with an external cAMP standard at concentrations ranging from 2.7 μM to 0.1 pM by plotting the fluorescent intensity ratio from 665 nm emission to the intensity from the 590 nm emission against cAMP concentrations. The potency and activity of a compound to […] cAMP production was then determined by fitting to a 4-parametric logistic equation from a plot of cAMP level versus compound concentrations.
The examples disclosed below were tested in the human RXFP1 (hRXFP1) HEK293 cAMP assay described above and found to have agonist activity.

`COc1ccc(C(=O)NCCCO)cc1C(=O)Nc1c(C(=O)Nc2ccc(F)c(C(F)(F)F)c2)sc2cc(C(F)(F)F)ccc12` [Example 216, N3-(2-((4-fluoro-3-(trifluoromethyl)phenyl)carbamoyl)-6-(trifluoromethyl)benzo[b]thiophen-3-yl)-N1-(3-hydroxypropyl)-4-methoxy-isophthalamide] showed a pEC50 of 5.46. `COc1ccc(C2CC2C(=O)NC2CCOCC2)cc1C(=O)Nc1c(C(=O)Nc2ccc(F)c(C(F)(F)F)c2)sc2cc(C(F)(F)F)ccc12` (single isomer, unassigned) [Example 158, N-[4-fluoro-3-(trifluoromethyl)phenyl]-3-(2-methoxy-5-{2-[(oxan-4-yl)carbamoyl]cyclopropyl}benzamido)-6-(trifluoromethyl)-1-benzothiophene-2-carboxamide] gave a pEC50 of 7.53. Consider `COc1ccc(C2CCCN(C(=O)CN)C2)cc1C(=O)Nc1c(C(=O)Nc2ccc(F)c(C(F)(F)F)c2)sc2cc(C(F)(F)F)ccc12` (stereo not shown) [Example 96, N-(4-fluoro-3-(trifluoromethyl)phenyl)-3-(5-(1-glycylpiperidin-3-yl)-2-methoxy-benzamido)-6-(trifluoromethyl) benzo[b] thiophene-2-carboxamide], for which the pEC50 was 6.49.

Compound `COc1ccc(C(=O)N2CC(C)(O)C2)cc1C(=O)Nc1c(C(=O)Nc2ccc(F)c(C(F)(F)F)c2)sc2cc(C(F)(F)F)ccc12` [Example 180, N-(4-fluoro-3-(trifluoromethyl)phenyl)-3-(5-(3-hydroxy-3-methylazetidine-1-carbonyl)-2-methoxy-benzamido)-6-(trifluoromethyl) benzo[b] thiophene-2-carboxamide] gave a pEC50 of 6.84.

`COc1ccc(N2CCCC(C(=O)NS(C)(=O)=O)C2)cc1C(=O)Nc1c(C(=O)Nc2ccc(F)c(C(F)(F)F)c2)sc2cc(C(F)(F)F)ccc12` (single isomer, unassigned) [Example 6, 1-(3-((2-((4-fluoro-3-(trifluoromethyl)phenyl)carbamoyl)-6-(trifluoromethyl)benzo[b]thiophen-3-yl)carbamoyl)-4-methoxyphenyl)-N-(methylsulfonyl) piperidine-3-carboxamide] gave a pEC50 of 6.46. Compared with the last compound, the pEC50 is 0.38 log units lower. Compound `COc1ccc(-c2cc(C(=O)O)ccc2F)cc1C(=O)Nc1c(C(=O)Nc2ccc(F)c(C(F)(F)F)c2)sc2nc(C)ccc12` [Example 288, 6-fluoro-3′-[(2-{[4-fluoro-3-(trifluoromethyl)phenyl]carbamoyl}-6-methylthieno[2,3-b]pyridin-3-yl)carbamoyl]-4′-methoxy-[1,1′-biphenyl]-3-carboxylic acid] had a pEC50 of 5.37. Compound `COc1ccc(C2=NOC3(CCOC3=O)C2)cc1C(=O)Nc1c(C(=O)Nc2ccc(F)c(C(F)(F)F)c2)sc2cc(C(F)(F)F)ccc12` (stereo not shown) [Example 251, N-(4-fluoro-3-(trifluoromethyl)phenyl)-3-(2-methoxy-5-(6-oxo-1,7-dioxa-2-azaspiro[4.4]non-2-en-3-yl)benzamido)-6-(trifluoromethyl) benzo[b] thiophene-2-carboxamide] showed a pEC50 of 6.65. In turn, `COc1ccc(N2CCCC(C(=O)O)C2)cc1C(=O)Nc1c(C(=O)Nc2ccc(F)c(C(F)(F)F)c2)sc2cc(C(F)(F)F)ccc12` (single isomer, unassigned) [Example 4, 1-(3-((2-((4-fluoro-3-(trifluoromethyl)phenyl)carbamoyl)-6-(trifluoromethyl)benzo[b]thiophen-3-yl)carbamoyl)-4-methoxyphenyl) piperidine-3-carboxylic acid] showed a pEC50 of 6.43. `COc1ccc(N2CCCC(NCC(N)=O)C2)cc1C(=O)Nc1c(C(=O)Nc2ccc(F)c(C(F)(F)F)c2)sc2cc(C(F)(F)F)ccc12` (stereo in doubt) [Example 112, (R)-3-(5-(3-((2-amino-2-oxoethyl)amino)piperidin-1-yl)-2-methoxy-benzamido)-N-(4-fluoro-3-(trifluoromethyl)phenyl)-6-(trifluoromethyl) benzo[b] thiophene-2-carboxamide] had a pEC50 of 6.23. As for `COc1cc(F)c(C(=O)N2CC3(COC3)C2)cc1C(=O)Nc1c(C(=O)Nc2ccc(F)c(C(F)(F)F)c2)sc2cc(C(F)(F)F)ccc12` [Example 185, 3-(4-fluoro-2-methoxy-5-(2-oxa-6-azaspiro[3.3]heptane-6-carbonyl)benzamido)-N-(4-fluoro-3-(trifluoromethyl)phenyl)-6-(trifluoromethyl) benzo[b] thiophene-2-carboxamide], the figure is 6.13. As for `COc1ccc(C(=O)N2CCOCC2)cc1C(=O)Nc1c(C(=O)Nc2ccc(F)c(C(F)(F)F)c2)sc2cc(C(F)(F)F)ccc12` [Example 221, N-(4-fluoro-3-(trifluoromethyl)phenyl)-3-(2-methoxy-5-(morpholine-4-carbonyl)benzamido)-6-(trifluoromethyl) benzo[b] thiophene-2-carboxamide], the figure is 5.96; as for `COc1ccc(N2CCCC(CC(=O)O)C2)cc1C(=O)Nc1c(C(=O)Nc2ccc(F)c(C(F)(F)F)c2)sc2cc(C(F)(F)F)ccc12` (single isomer, unassigned) [Example 65, 2-(1-(3-((2-((4-fluoro-3-(trifluoromethyl)phenyl)carbamoyl)-6-(trifluoromethyl)benzo[b]thiophen-3-yl)carbamoyl)-4-methoxyphenyl)piperidin-3-yl)acetic acid], 6.18. On to `COc1ccc(C(=O)N2CC3(COC3)C2)cc1C(=O)Nc1c(C(=O)Nc2ccc(F)c(C(F)(F)F)c2)sc2cc(C3CC3)ncc12` [Example 238, 6-cyclopropyl-N-(4-fluoro-3-(trifluoromethyl)phenyl)-3-(2-methoxy-5-(2-oxa-6-azaspiro[3.3]heptane-6-carbonyl)benzamido) thieno[3,2-c]pyridine-2-carboxamide], for which the pEC50 is 5.85. Compared with the last compound, the pEC50 is 0.33 log units lower. Consider `COc1ncc(N2CCCC(CO)C2)cc1C(=O)Nc1c(C(=O)Nc2ccc(F)c(C(F)(F)F)c2)sc2cc(C(F)(F)F)ccc12` (stereo not shown) [Example 11, N-(2-((4-fluoro-3-(trifluoromethyl)phenyl)carbamoyl)-6-(trifluoromethyl)benzo[b]thiophen-3-yl)-5-(3-(hydroxymethyl)piperidin-1-yl)-2-methoxynicotinamide], for which the pEC50 is 5.60. The figure for `COc1ccc(-c2cc(CNC(=O)C3CCC3)ccc2F)cc1C(=O)Nc1c(C(=O)Nc2ccc(F)c(C(F)(F)F)c2)sc2cc(C(F)(F)F)ccc12` [Example 18, 3-(5′-(cyclobutanecarboxamidomethyl)-2′-fluoro-4-methoxy-[1,1′-biphenyl]-3-carboxamido)-N-(4-fluoro-3-(trifluoromethyl)phenyl)-6-(trifluoromethyl)benzo[b]thiophene-2-carboxamide] is 6.51; for `COc1ccc(C2=NOC3CN(C(=O)CO)CC23)cc1C(=O)Nc1c(C(=O)Nc2ccc(F)c(C(F)(F)F)c2)sc2ccccc12` (single isomer, unassigned) [Example 248, N-[4-fluoro-3-(trifluoromethyl)phenyl]-3-{5-[5-(2-hydroxyacetyl) 3aH,4H,5H,6H, 6aH-pyrrolo[3,4-d][1,2]oxazol-3-yl]-2-methoxy-benzamido}-1-benzothiophene-2-carboxamide] it is 6.26.
